Columns and labels:
[1] = system: bacterial spores or thermophiles; experiment: Anti-spore and anti-thermophile activity; assay type: cell-based; settings: about 20 ppm; for Log Reduction: vs control
Method: The effect of the compounds on bacterial spores or thermophiles was also tested. Compounds 1 and 4 were incubated separately with spores or thermophiles at a concentration of about 20 ppm, and the reduction in concentration was measured at four time points (See Table 3).

[2] = system: mixture of aerobic populations from more than 30 cooling systems in North America; experiment: Non-oxidative antimicrobial efficiency test in cooling water (ASTM E645-02a); assay type: cell-based, bacteria (specific species not identified); settings: at the tested concentrations
Method: Antimicrobial efficiency of the synthesized compounds was tested using a non-oxidative antimicrobial efficiency test procedure according to ASTM method for microbiocide efficiency in cooling water (E645-02a, 2005). The bacteria used in the efficacy testing comprised a mixture of aerobic populations from more than 30 cooling systems in North America. The specific species were not identified. Those species were grown on R2A agar.
In one experiment, various concentrations (0 ppm, 5 ppm, 10 ppm, 20 ppm, 30 ppm, 40 ppm, and 50 ppm) of Compound 1 were applied to bacteria in water. The log 10 concentration in colony forming units (CFU/ml) was measured at four time points (0 min, 60 min, 240 min, and 1440 min).
The microbial activity of Compounds 1-4 at a concentration of 50 ppm was tested according to the same procedure described above.
The antimicrobial activity of Compound 4 was tested using the same procedures as described above.

[3] = Corrosion bubble cell test (Linear Polarization Resistance); settings: 2 ppm with 1% 2ME synergist; CO2-saturated brine/hydrocarbon, 80° C.; three hours baseline (Tables 8, 9)
Method: (§1) Cationic polymer salts were evaluated for corrosion performance as compared to a C12-C18 alkyl dimethyl benzyl ammonium chloride via a bubble test procedure. The bubble test simulates low flow areas where little or no mixing of water and oil occurs. The test was conducted using brine (80% of the brine being 3% sodium chloride brine and 20% of the brine being a hydrocarbon containing 75% LVT-200 kerosene oil and 25% xylene). The brine was placed into kettles and purged with carbon dioxide. The brine was continually purged with carbon dioxide to saturate the brine prior to starting the test. After the test began, the test cell was blanketed with carbon dioxide one hour prior to electrode insertion and through the duration of the test to maintain saturation. The kettles were stirred at 150 revolutions per minute (rpm) for the duration of the test to maintain thermal equilibrium at 80° C. The corrosion rate was measured by Linear Polarization Resistance (LPR) techniques. The working electrode used was carbon steel. The counter and reference electrodes were both 1018 carbon steel. The electrodes were all cleaned and polished prior to testing. Data were collected for three hours before 20 ppm of each of the compositions (containing 2 ppm of each of various pentaquaternary cationic polymer salts or the comparative C12-C18 alkyl dimethyl benzyl ammonium chloride and 1% 2-mercaptoethanol (2ME) as synergist in an organic solvent) was dosed into its respective cell. Data were collected overnight. A low concentration of the compositions was used to differentiate between the compositions.
Corrosion bubble cell tests were performed according to the method of Example A1 to evaluate a hexaquaternary cationic polymer salt for corrosion performance as compared to a C12-C18 alkyl dimethyl benzyl ammonium chloride. Data were collected for three hours before 20 ppm of each of the compositions (containing 2 ppm of a hexaquaternary cationic polymer salt or the comparative C12-C18 alkyl dimethyl benzyl ammonium chloride and 1% 2ME as synergist in an organic solvent) was dosed into its respective cell. Data were collected overnight. A low concentration of the compositions was used to differentiate between the compositions.
as §1, with “six” for “three”, “polyethyleneimine-based” for “pentaquaternary”, “cell. However, for the comparative composition, data was only collected three hours before addition of the compositions.” for “cell.”

[4] = system: collection of aerobic bacteria from 30 water samples in cooling towers across North America; experiment: Biofilm reduction (biofilm inhibition test, stain absorbance at 590 nm); assay type: cell-based; settings: for (Comp. - Single Quat 2)*100 / Single Quat 2: biofilm reduction relative to Single Quat 2
Method: Biofilm reduction experiments were conducted to test the efficacy of multi-quaternary cationic polymers compared to single quaternary compounds. Two different compositions were prepared containing single quaternary compounds: a composition (Single Quat 1) comprising about 50% by weight bisoctyl dimethyl ammonium chloride (CAS #5538-94-3) and about 5-10% by weight glycerin; and a composition (Single Quat 2) comprising about 50% by weight didecyl-dimethyl ammonium chloride (CAS #7173-51-5) and about 10-30% by weight ethanol. The test bacteria comprised a collection of aerobic bacteria from 30 water samples in cooling towers across North America. Different concentrations of cationic polymer salts and single quaternary compounds were tested ranging from about 0.8 ppm to about 1000 ppm. Using the biofilm inhibition test protocols, the absorbed stains were extracted and absorbance was measured at 590 nm. The biofilm reduction was calculated by comparing the absorbance of treated vs untreated controls, then averaged over six replicates.

[5] = Surface tension measurement (Tracker tensiometer); assay type: physicochemical; settings: room temperature
Method: Surface tension measurements were conducted on a Tracker tensiometer (Teclis Instruments) at room temperature. Various concentrations of surfactant solutions were prepared and measurements were conducted.
The surface tension as a function of concentration of the cationic surfactant samples were measured and are listed in Table 2, where NT means not tested.

In the case of CCCCCCCCCCCCCCCCCC[N+](C)(C)CC(O)CN(CCN(CC(O)C[N+](C)(C)C)CC(O)C[N+](C)(C)CCCCCCCCCCCCCCCCCC)CCN(CC(O)C[N+](C)(C)C)CC(O)C[N+](C)(C)CCCCCCCCCCCCCCCCCC.[Cl-].[Cl-].[Cl-].[Cl-].[Cl-] (centres unmarked) [Compound 4], the Log cfu/ml ([1]; contact time 0 min) is reported as 2.53 Log cfu/ml, the “Log Reduction” value ([1]; contact time 0 min) is reported as −0.04 and the Log cfu/ml ([1]; contact time 60 min) is reported as 1.6 Log cfu/ml. The “Log Reduction” value ([1]; contact time 60 min) was 0.74, the Log cfu/ml ([1]; contact time 240 min) was 0.00 Log cfu/ml and the “Log Reduction” value ([1]; contact time 240 min) was 2.48. For the same compound, the Log cfu/ml ([1]; contact time 1440 min) was 1.78 Log cfu/ml, the “Log Reduction” value ([1]; contact time 1440 min) was 0.75 and the antimicrobial activity [2] was “significant antimicrobial activity”.

For CCCCCCCCCCCCCCCCCC[N+](C)(C)CC(O)CN(CCN(CCN(CC(O)C[N+](C)(C)C)CC(O)C[N+](C)(C)CCCCCCCCCCCCCCCCCC)CC(O)C[N+](C)(C)C)CC(O)C[N+](C)(C)C.[Cl-].[Cl-].[Cl-].[Cl-].[Cl-] (centres unmarked) [Compound 9], the “% Protection” value [3] was 60%, the Biofilm reduction ([4]; active conc. 0.8 ppm) was 20.5% and the “(Comp. - Single Quat 2)*100 / Single Quat 2” value ([4]; active conc. 0.8 ppm) was 314.7%. For the same compound, the Biofilm reduction ([4]; active conc. 1.6 ppm) was 35.9%, the “(Comp. - Single Quat 2)*100 / Single Quat 2” value ([4]; active conc. 1.6 ppm) was −9.6% and the Biofilm reduction ([4]; active conc. 3.0 ppm) was 41.2%. For the same compound, the “(Comp. - Single Quat 2)*100 / Single Quat 2” value ([4]; active conc. 3.0 ppm) was −43.2%, the Biofilm reduction ([4]; active conc. 6.0 ppm) was 45.4% and the “(Comp. - Single Quat 2)*100 / Single Quat 2” value ([4]; active conc. 6.0 ppm) was −11.1%. For the same compound, the Biofilm reduction ([4]; active conc. 8.0 ppm) was 62.6%, the “(Comp. - Single Quat 2)*100 / Single Quat 2” value ([4]; active conc. 8.0 ppm) was −8.6% and the Biofilm reduction ([4]; active conc. 12.0 ppm) was 70.9%. For the same compound, the “(Comp. - Single Quat 2)*100 / Single Quat 2” value ([4]; active conc. 12.0 ppm) was −13.2%, the Biofilm reduction ([4]; active conc. 16.0 ppm) was 79.0% and the “(Comp. - Single Quat 2)*100 / Single Quat 2” value ([4]; active conc. 16.0 ppm) was −15.5%. For the same compound, the Biofilm reduction ([4]; active conc. 25.0 ppm) was 76.8%, the “(Comp. - Single Quat 2)*100 / Single Quat 2” value ([4]; active conc. 25.0 ppm) was −15.9% and the Biofilm reduction ([4]; active conc. 31.0 ppm) was 46.9%. The “(Comp. - Single Quat 2)*100 / Single Quat 2” value ([4]; active conc. 31.0 ppm) was −50.8%, the Biofilm reduction ([4]; active conc. 50.0 ppm) was 77.6% and the “(Comp. - Single Quat 2)*100 / Single Quat 2” value ([4]; active conc. 50.0 ppm) was −15.9%. For the same compound, the Biofilm reduction ([4]; active conc. 62.0 ppm) was 90.7%, the “(Comp. - Single Quat 2)*100 / Single Quat 2” value ([4]; active conc. 62.0 ppm) was −0.4% and the Biofilm reduction ([4]; active conc. 100.0 ppm) was 97.3%. The “(Comp. - Single Quat 2)*100 / Single Quat 2” value ([4]; active conc. 100.0 ppm) was 41.9%, the Biofilm reduction ([4]; active conc. 125.0 ppm) was 98.9% and the “(Comp. - Single Quat 2)*100 / Single Quat 2” value ([4]; active conc. 125.0 ppm) was 88.6%. The Biofilm reduction ([4]; active conc. 250.0 ppm) was 99.5%, the “(Comp. - Single Quat 2)*100 / Single Quat 2” value ([4]; active conc. 250.0 ppm) was 55.3% and the Biofilm reduction ([4]; active conc. 500.0 ppm) was 99.6%. For the same compound, the “(Comp. - Single Quat 2)*100 / Single Quat 2” value ([4]; active conc. 500.0 ppm) was 23.7%, the Biofilm reduction ([4]; active conc. 1000.0 ppm) was 99.6% and the “(Comp. - Single Quat 2)*100 / Single Quat 2” value ([4]; active conc. 1000.0 ppm) was 33.5%. For the same compound, the “reduction in biofilm formation” value ([4]; at concentrations about 100 ppm) was “greater than 95%”, the Surface tension ([5]; concentration 0.010 %) was 73.11 mN/m and the Surface tension ([5]; concentration 0.025 %) was 69.16 mN/m. For the same compound, the Surface tension ([5]; concentration 0.050 %) was 60.77 mN/m, the Surface tension ([5]; concentration 0.100 %) was 54.69 mN/m and the Surface tension ([5]; concentration 0.200 %) was 52.05 mN/m. The Surface tension ([5]; concentration 0.500 %) was 50.09 mN/m and the Surface tension ([5]; concentration 1.000 %) was 49.38 mN/m.

From patent US10899910B2, “Quaternary cationic polymers” (ECOLAB USA, INC., priority 2016, dated 2021)
